Measured values reported in a melting point compilation (Tetko et al.).

Row | SMILES | melting point
1 | O=C(O)Cc1csc(-c2cccc(F)c2)n1 | 124 to 126 °C
2 | COc1ccc(C(C)CC(=O)O)cc1 (stereo not drawn) | 66 to 68 °C
3 | NNC(=O)c1ccc(COc2ccccc2)cc1 | 148 to 150 °C
4 | Cc1cc(C(=O)O)cc(C)c1OCc1cccnc1 | 182 to 184 °C
5 | Nc1cc(S(=O)(=O)NC2CC2)ccc1Cl | 125 to 127 °C
6 | COC(=O)c1sc2ncccc2c1N | 191 to 193 °C
7 | Cc1nn(C)c(N)c1SC#N | 176 to 178 °C
8 | NC(=NO)c1cccc(F)c1 | 73 to 75 °C
9 | CCN(CC)S(=O)(=O)c1ccc(Cl)c(N)c1 | 84 to 88 °C
10 | O=C(O)c1csc(Cc2ccc(F)cc2)n1 | 149 to 151 °C
11 | Cc1ccc(NC(=O)CC2(C(=O)O)CCCC2)cc1 | 191 to 193 °C
12 | Cc1nc(Cl)c(C)c(-n2cccn2)n1 | 61 to 63 °C
13 | OCc1cccc2cn[nH]c12 | 201 to 203 °C
14 | O=C(O)c1ccccc1OC1CCCCC1 | 86 to 88 °C
15 | O=C(CCl)N1CCSc2ccccc21 | 53 to 55 °C
16 | Cc1cn(-c2cccnc2)nc1N | 135 to 137 °C
17 | COc1ccc(C(=O)/C=C2\NC(=O)CS2)cc1 | 210 to 212 °C
18 | O=C(O)CCCc1nc(-c2ccc(Cl)cc2)no1 | 108 to 110 °C
19 | CCOC(=O)c1oc2c(Cl)cccc2c1C | 63 to 65 °C
20 | [N-]=[N+]=NC(C(N)=O)c1ccc(F)cc1 (stereo not drawn) | 127 to 129 °C

Row | SMILES | melting point
21 | CC(C)n1cnc2cc(C(=O)O)ccc21 | 216 to 218 °C
22 | Cn1c(=O)c2c(=O)cc(N)[nH]c2n(C)c1=O | 316 to 318 °C
23 | Cc1cccc(-n2nnnc2S)c1C | 115 to 117 °C
24 | Nc1cccc(C#Cc2ccccc2)c1 | 47 to 49 °C
25 | Ic1c[nH]c2ccncc12 | 171 to 173 °C
26 | O=S(=O)(c1ccc2c(c1)NCC2)N1CCCC1 | 181 to 183 °C
27 | Cc1c(N)cccc1COc1ccccc1 | 94 to 96 °C
28 | NC(=NO)c1ccc(N2CCN(c3ccc(F)cc3)CC2)nc1 | 191 to 193 °C
29 | CC1CCCCN1Cc1ccc(N)cc1 (stereo not drawn) | 54 to 56 °C
30 | COc1ccc(C)cc1-c1nn(CC(C)C)cc1C(=O)O | 181 to 183 °C
31 | O=C1CC(c2ccccc2)NCCN1 (stereo not drawn) | 102 to 104 °C
32 | Cc1cc2cc(C(=O)O)oc2cc1C | 269 to 271 °C
33 | O=Cc1ccc(OCc2ncon2)cc1 | 98 to 100 °C
34 | COC(=O)/C=C/c1ccc(OC)c(S(=O)(=O)Cl)c1 | 115 to 117 °C
35 | Cc1cc(S(C)(=O)=O)cc(C(=O)O)c1C | 199 to 201 °C
36 | O=C(O)Cc1csc(-c2cccc(C(F)(F)F)c2)n1 | 109 to 111 °C
37 | O=C(O)CCNC(=O)c1ccc(F)cc1Cl | 141 to 143 °C
38 | COC(=O)c1cccc(C(=O)O)n1 | 149 to 151 °C
39 | c1cc2n(n1)CCCN2 | 99 to 101 °C
40 | FC(F)(F)Cc1nnc2ccc(Cl)nn12 | 137 to 139 °C

Row | SMILES | melting point
41 | Cc1ccc(NC(=O)c2ccccc2)cc1N | 144 to 146 °C
42 | COC(=O)c1occc1CC#N | 62 to 64 °C
43 | O=C(NC1(C(=O)O)CCCC1)c1ccc2[nH]ncc2c1 | 285 to 287 °C
44 | CC1CCN(C(=O)c2ccccc2N)CC1 | 59 to 61 °C
45 | N#CCC(=O)c1ccsc1 | 92 to 94 °C
46 | CN(Cc1ccccc1)C(N)=O | 134 to 136 °C
47 | Nc1nnc(CC2CC2)o1 | 141 to 143 °C
48 | COC(=O)c1[nH]c(C)cc1N | 128 to 130 °C
49 | Cc1onc2c(=O)[nH]nc(-c3ccccc3)c12 | 235 to 237 °C
50 | Nc1c(-c2cccs2)nc2ccccn12 | 188 to 190 °C
51 | O=C(O)C1=CCCO1 | 98 to 100 °C
52 | Sc1nnc(-c2ccco2)n1C1CCCCC1 | 134 to 136 °C
53 | Cc1cc(C)c(S(=O)(=O)NCCC(=O)O)c(C)c1 | 118 to 120 °C
54 | O=C(O)c1cc(-c2ccco2)nn1-c1ccccc1 | 159 to 161 °C
55 | Cc1cc(O)c(C=O)cc1C | 64 to 66 °C
56 | Nc1cc(-c2ccccc2F)no1 | 118 to 120 °C
57 | CNCc1ccc(C(=O)NC)o1 | 65 to 67 °C
58 | O=C1CCc2cc3c(cc21)OCCO3 | 118 to 120 °C
